Reference: the supplement of paper PMC10307832

Compound: C1COCCN1CC2=CC(=O)C(=CO2)OCCCCCSC3=C4C=CC(=CC4=NC=C3)C(F)(F)F [EHT 1864]
Assay: relative viability (nuclei count vs DMSO), 5 days (fraction); higher = more cells survive
Outline: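 Only plates meeting two conditions passed: control CV below 25% and at least one doubling. Lung cancer cell lines, kept overnight at 37 °C in 1536-well plates, were pinned with five library-drug doses (not always all listed) √10 apart on vehicle-anchored plates and grown 5 days without medium change. A one-step fix, permeabilisation and Hoechst stain preceded 4× imaging and MetaXpress nuclear counting. Viability equals treated-well nuclei divided by vehicle-well nuclei, as the median over plates.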

Cell Line	relative viability (0.04 µM)	relative viability (0.1265 µM)	relative viability (0.4 µM)	relative viability (1.265 µM)	relative viability (4 µM)
COR-L 105	0.893	0.869	1.05	0.975	0.945
LK-2	1.04	0.793	0.979	1.04	0.929
NCI-H727	0.924	0.909	0.936	0.979	0.946
RERF-LC-KJ	1.02	0.928	0.936	0.994	0.956
NCI-H2023	0.944	0.817	0.893	0.925	0.939
NCI-H322M	0.95	0.921	0.942	1.05	0.923
NCI-H1666	1.05	0.879	0.957	0.916	1.08
NCI-H1648	1.2	0.735	0.954	1.02	1.43
NCI-H2087	1.12	–	0.956	0.832	0.942
LU99A	0.883	0.758	0.968	1	0.893
HCC-366	1.01	0.804	1.01	1.07	1.06
EKVX	0.96	0.931	0.946	0.962	0.968
NCI-H522	0.845	0.939	0.996	1	0.855
NCI-H1755	0.989	0.955	0.927	0.979	0.938
NCI-H647	1.01	0.775	1.03	1.02	0.908
LC-2-ad	0.966	0.716	1.03	0.946	0.934
NCI-H1944	1.09	–	1	1.01	0.879
HCC-827	1.03	0.821	1.07	0.99	1.02
HCC-78	0.968	0.907	0.923	0.922	1.13

Cell Line	relative viability (0.04 µM)	relative viability (0.1265 µM)	relative viability (0.4 µM)	relative viability (1.265 µM)	relative viability (4 µM)
NCI-H2085	0.988	0.897	0.987	1.01	0.903
PC-14	1.01	0.823	1.04	1.03	0.939
NCI-H2342	0.778	0.856	0.803	0.929	1.03
A-427	0.975	0.922	1.03	0.956	0.882
H3255	0.903	0.82	0.963	0.946	1.01
HCC-44	0.987	0.867	0.97	0.935	0.974
NCI-H1734	1.07	0.702	1.03	1.09	0.906
NCI-H2228	0.974	0.876	0.934	0.776	1
ABC-1	1.13	0.964	0.946	0.7	0.627
COR-L23	0.964	0.885	0.956	0.971	0.824
NCI-H661	1.01	1.01	0.975	0.941	0.926
NCI-H1993	0.965	–	0.957	1.03	0.873
NCI-H1437	1.05	0.94	0.936	0.839	0.762
UMC-11	1	0.804	0.901	0.985	1.17
201T	0.97	0.92	1.02	0.974	0.913
SK-MES-1	0.97	0.943	1.02	0.967	0.974
ChaGo-K-1	1.02	0.976	0.996	0.95	0.992
NCI-H1650	0.892	0.676	0.907	0.826	0.754
LOU-NH91	0.973	0.909	1.05	1.04	0.892
